Reference: ChEMBL document CHEMBL1201862, “PubChem BioAssay data set” (2004)
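Step 1: Grow cells in 96-well plates. Step 2: Expose to compound for 48 hours at 5 concentrations. Step 3: Interpolate endpoints linearly; if unreached, use highest concentration. GI50: concentration for 50% inhibition of growth.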 Active and inactive are the calls of the source. Rule as the data show it: active = GI50 up to about 1.1 µM and inactive = higher.

Columns and labels:
Assay in all cases: inhibition of tumour cell growth, NCI panel, 48 h
786-0 = test system: 786-0
DU-145 = test system: DU-145
EKVX = test system: EKVX
HOP-62 = test system: HOP-62
K562 = test system: K562
KM12 = test system: KM12
LOX IMVI = test system: LOX IMVI
MDA-N = test system: MDA-N
MOLT-4 = test system: MOLT-4
SF-268 = test system: SF-268
SF-295 = test system: SF-295
SK-MEL-2 = test system: SK-MEL-2
SK-OV-3 = test system: SK-OV-3
SNB-19 = test system: SNB-19
SR = test system: SR
T47D = test system: T47D
CCRF-CEM = test system: CCRF-CEM
HCC 2998 = test system: HCC 2998

Measured: GI50

Cn1c(=O)c2nc(CSCc3ccccc3)[nH]c2n(C)c1=O
inactive: 786-0 > 100 µM | DU-145 > 100 µM | EKVX 24.8 µM | HOP-62 > 100 µM | K562 78 µM | KM12 > 100 µM | LOX IMVI > 100 µM | MDA-N > 100 µM | MOLT-4 > 100 µM | SF-268 > 100 µM | SF-295 85.7 µM | SK-MEL-2 > 100 µM | SK-OV-3 > 100 µM | SNB-19 > 100 µM | SR > 100 µM | T47D > 100 µM

Cc1cc(=O)n2nc(SCc3ccccc3)sc2n1
inactive: 786-0 > 100 µM | CCRF-CEM > 100 µM | DU-145 > 100 µM | HCC 2998 > 100 µM | HOP-62 > 100 µM | K562 18.2 µM | KM12 > 100 µM | LOX IMVI 77.4 µM | MDA-N > 100 µM | MOLT-4 46.5 µM | SF-268 > 100 µM | SF-295 > 100 µM | SK-OV-3 > 100 µM | SNB-19 > 100 µM | SR > 100 µM | T47D 42.3 µM

NC(Cc1c[nH]c2ccc([N+](=O)[O-])cc12)C(=O)O (configuration not stated)
inactive: 786-0 > 100 µM | CCRF-CEM > 100 µM | DU-145 > 100 µM | EKVX > 100 µM | HOP-62 > 100 µM | K562 > 100 µM | KM12 > 100 µM | LOX IMVI > 100 µM | MDA-N > 100 µM | MOLT-4 > 100 µM | SF-268 > 100 µM | SF-295 > 100 µM | SK-MEL-2 > 100 µM | SK-OV-3 > 100 µM | SNB-19 > 100 µM | SR > 100 µM | T47D > 100 µM

N#CC(C#N)=CNCCN1CCN(C=C(C#N)C#N)CC1
inactive: 786-0 > 100 µM | DU-145 > 100 µM | EKVX > 100 µM | HOP-62 > 100 µM | K562 > 100 µM | KM12 > 100 µM | LOX IMVI > 100 µM | MDA-N > 100 µM | MOLT-4 > 100 µM | SF-268 > 100 µM | SF-295 > 100 µM | SK-MEL-2 > 100 µM | SK-OV-3 > 100 µM | SNB-19 > 100 µM | SR > 100 µM | T47D > 100 µM

Cc1cn(C(=O)NC23CC4CC(CC(C4)C2)C3)c(=O)[nH]c1=O
inactive: 786-0 37.2 µM | CCRF-CEM 25.6 µM | DU-145 > 100 µM | EKVX 23.9 µM | HCC 2998 50.4 µM | HOP-62 > 100 µM | K562 31.6 µM | KM12 64.4 µM | LOX IMVI 27.5 µM | MDA-N 13.2 µM | MOLT-4 41.5 µM | SF-268 37.5 µM | SF-295 36.5 µM | SK-MEL-2 19.9 µM | SK-OV-3 34.4 µM | SNB-19 71.1 µM | T47D 31.3 µM
